Drawing on the METLIN SMRT retention time set (Domingo-Almenara et al. 2019), this text covers RP-LC retention time for 79 molecules.

The structures appear in SMILES notation.

The data set is described as follows: gradient 5% acetonitrile 3 min, to 50% in 2 min, to 85% in 15 min, held 3 min, 100 µL/min. The note with it: column: Zorbax Extend-C18 2.1 x 50 mm; eluents: water / acetonitrile, 0.1% formic acid. The gist of the method:
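Retention time was recorded from adduct peaks, which were picked computationally and each inspected manually. Pure standards ran in mixtures of ~100 molecules on HPLC coupled to a quadrupole time-of-flight mass spectrometer, in positive and negative ionization mode, through a Zorbax Extend-C18 column (2.1 × 50 mm, 1.8 μm) at 100 μL/min. Eluents were water and acetonitrile, each with 0.1% formic acid.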
Consider `CC1CCN(S(=O)(=O)c2ccc(C(=O)Nc3nc4c(s3)Cc3ccccc3-4)cc2)CC1`, for which the RP-LC retention time is 1230 s. As for `COc1ccc(NC(=O)N2CCN(c3nc4ccccc4n3C)CC2)cc1OC`, the figure is 610 s; as for `CC1CCN(S(=O)(=O)c2cc(-c3nnc(C4CCC4)o3)co2)CC1`, 999 s.

`CCC(C)NC(=O)Cn1c(=O)cc(-c2nc(C(C)C)no2)c2ccccc21` (centres undefined) gave an RP-LC retention time of 707 s.

In turn, `O=C(NC1CCCC1)c1ccc2ccnc(N3CCN(c4ccc(F)cc4)CC3)c2c1` showed an RP-LC retention time of 803 s.

`Cn1ncc(N2CCC(C(=O)N3CCN(C(=O)C4COc5ccccc5O4)CC3)CC2)cc1=O` (centres undefined): the RP-LC retention time came out at 659 s.

The molecule `O=C(NCC(=O)N1CCOC(c2ccccc2)C1)c1ccc(-c2ccccc2)cc1` (centres undefined) gave an RP-LC retention time of 893 s. In turn, `CCN(CCN(C)C)c1ccc(C(=O)O)cc1NS(=O)(=O)c1cc(F)ccc1C` registered an RP-LC retention time of 634 s. Molecule `Cn1cc(-c2cc3n(n2)CCCN3C(=O)CCC(=O)N2CCCCCC2)c2ccccc21` came in with an RP-LC retention time of 837 s. The value for `O=C(CCc1ccc2cc[nH]c2c1)NCc1cccs1` was 806 s; that for `CC(C)C(NC(=O)Nc1ccc2c(c1)OCCO2)C(=O)N1CCc2ccccc21` (centres undefined) was 609 s. As for `CC1=C(C(=O)NCc2ccc3c(c2)OCO3)C2(CCN(Cc3ccccc3)CC2)OC1=O`, the figure is 669 s; as for `O=C1[C@H]2CN(Cc3cccc(F)c3)C[C@H]2C(=O)N1CCc1ccccc1`, 804 s. As for `CN(C)c1cc(N2CCCC(NC(=O)c3ccccn3)C2)ncn1` (centres undefined), the figure is 559 s.

`Cc1ccc2nc(-c3cccc(S(=O)(=O)N4CCCC4)c3)cn2c1` returned an RP-LC retention time of 657 s.

In turn, `CC(=O)NCc1nc(-c2ccccc2Cl)no1` had an RP-LC retention time of 673 s. `COc1ccc(N2C(=O)C3N=NN(Cc4nc(-c5ccc(OC(C)C)cc5)no4)C3C2=O)cc1OC` (centres undefined) had an RP-LC retention time of 841 s. On to `COc1cccc(-c2cc3n(n2)CCCN(C(=O)COc2ccccc2)C3)c1`, for which the RP-LC retention time amounted to 788 s. The value for `Cc1ccc(N2C(=O)C3N=NN(Cc4nc(-c5ccccc5)no4)C3C2=O)cc1C` (centres undefined) was 1020 s. Turning to `O=C(Cc1ccccc1)N1[C@H]2CC[C@@H]1c1cnc(-c3ccccc3)nc1C2`, the RP-LC retention time stood at 898 s.

Take `O=C(N1CC(Oc2ccc(-c3noc(-c4ccccc4)n3)cc2)C1)C1(c2ccccc2)CC1`: the RP-LC retention time was determined as 1320 s. As for `Cc1ccc(Sc2nccnc2N2CCCC(C(=O)N3CCN(c4ccccc4)CC3)C2)cc1` (centres undefined), the figure is 1220 s; as for `Cc1ccc2c(Nc3ccccc3Cl)c(-c3nc(C)no3)cnc2n1`, 821 s; as for `O=C(CCn1nnc2ccccc2c1=O)NCCn1ncccc1=O`, 584 s.

The molecule `COc1cccc(NC(=O)N2CC(c3nc(C)no3)C3(CCOCC3)C2)c1` (centres undefined) yielded an RP-LC retention time of 703 s. The value for `COc1ccc(N2CC(C(=O)Nc3cc(C)nn3C3CCS(=O)(=O)C3)CC2=O)cc1` (centres undefined) was 638 s; that for `COc1ccc(Cn2nc3ccc(S(=O)(=O)N4CCC(C)CC4)cn3c2=O)cc1F` was 1340 s. The value for `O=C(Nc1ccccc1C(F)(F)F)N1CCCC1c1nncn1-c1ccccc1` (centres undefined) was 736 s; that for `CCCN1C(=O)COc2ccc(-c3noc(-c4ccccc4C)n3)cc21` was 1290 s. The value for `CCn1cnc(S(=O)(=O)N2CCCC(C(=O)N3CCN(c4ccccn4)CC3)C2)c1` (centres undefined) was 575 s; that for `O=C(Nc1nc(-c2ccc(Cl)cc2)cs1)c1ccc2c(c1)OCO2` was 1110 s.

In turn, `Cn1nc(-c2nc(-c3ccc(F)cc3)no2)c2c1CCN(C(=O)C1CCCO1)C2` (centres undefined) gave an RP-LC retention time of 789 s.

Consider `O=C(Cn1nc2c3cc(-c4ccc(F)cc4)nn3ccn2c1=O)NC1CCCC1`, for which the RP-LC retention time was determined as 824 s. For the molecule `N#CC1(C(=O)NCCc2cccs2)CC1`, the RP-LC retention time turned out to be 708 s. The molecule `CN1CCN(c2nc(Nc3ccc4c(c3)OCO4)c3cnn(-c4ccccc4)c3n2)CC1` yielded an RP-LC retention time of 701 s. The value for `O=C(c1ccc2c(c1)OCO2)N1CC(c2noc(C3CCCN3CC3CC3)n2)C1` (centres undefined) was 610 s; that for `CCOc1ccccc1NC(=O)Cn1nc2c(Oc3cccc(F)c3)nccn2c1=O` was 906 s; that for `Cc1ccc(NC(=O)N2CCC(c3nc(C(=O)N4CCCC4)c(C)o3)CC2)cc1Cl` was 895 s. The value for `COC(=O)c1ccc(OC(=O)N(C)c2ccccc2)cc1` was 879 s; that for `CN(C)S(=O)(=O)c1ccc(-c2nnc(C(=O)NCc3cccc(Cl)c3)o2)cc1` was 969 s. As for `Cc1ccc(C2=NC3(CCN(C(C)C)CC3)NC(c3ccccc3O)C2)cc1` (centres undefined), the figure is 612 s.

Molecule `CN1c2ccc(F)cc2C(=O)NC12CCN(C(=O)Cc1ccc(Cl)cc1)CC2` showed an RP-LC retention time of 795 s. The value for `CC(C)c1ccc(S(=O)(=O)NCC(c2cccnc2)c2c[nH]c3ccccc23)cc1` (centres undefined) was 772 s; that for `COC(=O)c1cccc(C(=O)N2CCN(c3cc(Cl)ccc3C)CC2)n1` was 946 s; that for `CCc1cnc2c(c1OC)c(=O)n(Cc1ccccc1F)c(=O)n2C` was 970 s. The molecule `COc1ccc(S(=O)(=O)N2CCC(OCCOCc3ccccc3)CC2)cc1` showed an RP-LC retention time of 1050 s.

`O=C(NCCc1nc(-c2ccccc2)cs1)C1CC(=O)N(c2n[nH]c3ccccc23)C1` (centres undefined) displayed an RP-LC retention time of 740 s. As for `CCc1nc(-c2cc(S(=O)(=O)NCC(=O)N3CCCCC3)c(C)s2)no1`, the figure is 891 s.

In turn, `CCc1nnc2cc(N3CCN(Cc4ccc(OC(C)C)cc4)CC3)cnn12` displayed an RP-LC retention time of 545 s. The value for `O=S(=O)(CCc1ccccc1)N1CCN(c2ccc3nncn3n2)CC1` was 664 s; that for `COc1cc(C(=O)NC(CC(C)C)C(=O)Nc2nc3ccccc3[nH]2)cc(OC)c1OC` (centres undefined) was 733 s.

`Cc1noc2nc(C)n(CC(=O)NCc3ccccc3)c(=O)c12`: the RP-LC retention time turned out to be 716 s.

As to `Cc1cc(OCC(=O)Nc2nc(-c3ccccc3)cs2)ccc1Cl`, the RP-LC retention time came to 1180 s. With `O=C(C1=CN(c2ccc(F)cc2)c2cc(F)ccc2S1(=O)=O)N1CCOCC1`, the RP-LC retention time worked out at 769 s. As for `Cc1nc(C)c(-c2nnc(NC(=O)c3ccc(=O)[nH]n3)o2)s1`, the figure is 578 s; as for `CCc1ccccc1NC(=O)C1CC(=O)N(c2ccc3c(c2)CCN3C(=O)C2CC2)C1` (centres undefined), 780 s. As for `O=C1NCCOCCN(S(=O)(=O)c2cccc3cccnc23)[C@@H]2CCCC[C@H]12`, the figure is 735 s; as for `O=C(NCc1cnoc1-c1ccc(F)cc1)c1ccccc1`, 844 s; as for `Cc1ccc(CNC(=O)CSCc2nc3cccnc3n2C2CCCCC2)o1`, 877 s. In turn, `CC(C)Cn1c(=O)c(-c2ccc(C(=O)NCCC3=CCCCC3)cc2)nc2ccccc21` registered an RP-LC retention time of 1300 s. The value for `CCn1ccc(C(=O)N2CCCN(C3=NS(=O)(=O)C(c4ccc(F)cc4)=C3C)CC2)n1` was 759 s.

Regarding `Cc1ccc(S(=O)(=O)NCCn2c(C)cnc2C2CCC2)cc1F`, the RP-LC retention time was 637 s. The value for `Cc1ccc(C(C)NC(=O)c2cccc(C3CCCN(C(=O)NC(C)C)C3)c2)c(C)c1` (centres undefined) was 969 s; that for `CCC(C)NC(=O)CCC(=O)N1CCc2c(c(C(=O)N3CCCCC3)nn2C)C1` (centres undefined) was 645 s; that for `COC(=O)C1=CN(c2cccc(F)c2)c2ccccc2S1(=O)=O` was 796 s. As for `O=C(Cn1cccc(-c2nc(-c3ccc(F)cc3)no2)c1=O)Nc1ccccc1Br`, the figure is 912 s. As for `O=C(Nc1ccc2sccc2c1)c1ccc(Cl)s1`, the figure is 996 s. Regarding `COc1cc(Cl)ccc1-c1nc(-c2ccc3oc(C)nc3c2)no1`, the RP-LC retention time turned out to be 1140 s. As to `COc1ccc(CNC(=O)Cn2ccc3ccc(-c4nnc(C)o4)cc32)cc1`, the RP-LC retention time is 1080 s. As for `O=C(NCC(O)(c1ccccc1)C(F)(F)F)C(=O)Nc1ccon1` (centres undefined), the RP-LC retention time is 738 s.

`CC(C)c1nc2cc3c(cc2n1CC(=O)Nc1ccccc1)OCCO3` returned an RP-LC retention time of 674 s. For `O=C(NCCc1csc(-c2cccs2)n1)C1CCN(C(=O)CCC2CCCC2)CC1`, the RP-LC retention time worked out at 901 s. The value for `COc1ccc(-c2nc3ccccn3c2NCc2ccccc2)cc1` was 724 s. The value for `CC(C)n1c(SCC(=O)N2CCCCC2)nnc1-c1ccc2c(c1)OCCCO2` was 761 s. Turning to `O=C(OCc1ccncc1)c1cn(-c2cccc(F)c2)c(=O)c2ccccc12`, the RP-LC retention time turned out to be 713 s. Regarding `CCOc1ccccc1NC(=O)c1cnc(-c2ccccc2)nc1-c1ccncc1`, the RP-LC retention time was 978 s. As for `COc1ccc(C(=O)Nc2cccn3c(C)nnc23)cc1F`, the RP-LC retention time is 667 s. In the case of `COc1cccc(-c2nc(C3CCN(S(=O)(=O)c4ccc(Cl)cc4)CC3)no2)c1`, the RP-LC retention time came to 1170 s. As for `COc1ccc(NC(=O)C2CCCN(c3nnc4c(Cl)cccn34)C2)cc1OC` (centres undefined), the figure is 667 s.
